Laboratory results published in patent publication US20020179457A1, “Electrochemical method for high-throughput screening of minute quantities of candidate compounds” (priority 2001, published 2002).

Columns and labels:
horseradish peroxidase = horseradish peroxidase (Armoracia rusticana, UniProt P00433); details: pH 7
Method: A system with a total volume of 0.1 mL comprising a flow cell is constructed. The cell comprises a detection chamber having an interior volume of 5 μl, an inlet for directing a stream of liquid into the detection chamber, and an outlet for directing liquid out of the detection chamber. The detection chamber contains a working electrode for assessing the capability of candidate compounds for inhibiting the catalytic activity of horseradish peroxidase, a carbon paste counter electrode, and downstream from the working electrode, near the outlet, a standard calomel reference electrode. The working electrode is formed by co-depositing on a conductive substrate horseradish peroxidase and a redox polymer formed of poly(4-vinyl pyridine) partially reacted with 2-bromoethylamine and partially complexed with [Os(bpy)2Cl]^+/2+ where bpy=2,2′-bipyridine complex of osmium (2+/3+) and poly(4-vinyl pyridine). The horseradish peroxidase and the redox polymer are crosslinked on the substrate by periodate oxidation, whereby aldehyde functions are produced in the oligosaccharides of the peroxidase, and by adding PEGDGE, polyethylene glycol diglycidyl ether.
An aqueous pH 7 phosphate buffer comprises 0.15 M NaCl and 1 mM hydrogen peroxide. Three liquid samples are prepared, each sample 0.1 mL. […]

acetylcholine esterase = acetylcholine esterase (Homo sapiens, UniProt P22303); test: electrochemical flow cell assay of inhibition of acetylcholine esterase (esterase/choline oxidase/peroxidase cascade); assay type: biochemical
Chain of acetylcholine esterase (P22303 32-614): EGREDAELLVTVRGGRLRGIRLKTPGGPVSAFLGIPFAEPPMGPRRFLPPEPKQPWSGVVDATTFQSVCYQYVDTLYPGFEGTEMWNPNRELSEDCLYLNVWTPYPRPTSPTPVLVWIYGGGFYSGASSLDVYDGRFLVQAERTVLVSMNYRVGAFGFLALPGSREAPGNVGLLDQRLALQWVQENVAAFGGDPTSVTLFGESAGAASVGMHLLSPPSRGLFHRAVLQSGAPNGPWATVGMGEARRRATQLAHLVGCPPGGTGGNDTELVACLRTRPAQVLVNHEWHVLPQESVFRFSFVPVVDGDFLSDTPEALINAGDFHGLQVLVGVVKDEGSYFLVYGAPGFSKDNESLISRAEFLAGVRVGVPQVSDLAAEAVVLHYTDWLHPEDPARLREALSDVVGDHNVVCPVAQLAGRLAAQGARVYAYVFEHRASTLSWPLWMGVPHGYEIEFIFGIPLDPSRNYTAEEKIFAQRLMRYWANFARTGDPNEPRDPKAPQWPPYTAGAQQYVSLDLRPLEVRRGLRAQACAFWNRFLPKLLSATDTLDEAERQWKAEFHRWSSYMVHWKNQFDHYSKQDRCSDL
Method: An aqueous carrier liquid is prepared in an oxygen-containing atmosphere to comprise the buffer of Example 1 and acetylcholine, the total volume of the liquid being less than 0.1 mL. Two samples are prepared. The first sample contains only the buffered acetylcholine solution; the second sample contains the liquid carrier and 100 pg malathion, an insecticide.
The first sample is introduced into the flow cell through the inlet, and the working electrode is poised at +0.1 V versus the standard calomel electrode. The acetylcholine in the solution is hydrolyzed by the esterase on the electrode, producing choline, which, in turn, combines with dissolved oxygen to form hydrogen peroxide. The hydrogen peroxide is electroreduced to water. An electric current is produced between the electrodes as a result. The current produced provides a baseline against which current produced as a result of enzymatic inhibition is measured.

Chain of horseradish peroxidase (P00433 31-338): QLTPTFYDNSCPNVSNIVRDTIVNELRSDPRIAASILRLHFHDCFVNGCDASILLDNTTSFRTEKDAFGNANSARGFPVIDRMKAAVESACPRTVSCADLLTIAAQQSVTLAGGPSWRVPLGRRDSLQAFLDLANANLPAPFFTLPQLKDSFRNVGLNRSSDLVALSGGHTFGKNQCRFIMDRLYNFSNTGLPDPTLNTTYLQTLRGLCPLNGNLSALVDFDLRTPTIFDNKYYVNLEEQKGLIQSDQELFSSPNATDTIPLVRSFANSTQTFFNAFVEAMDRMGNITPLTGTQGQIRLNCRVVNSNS

Row | SMILES | current passing from one electrode to another, versus baseline (inhibition of catalytic activity of horseradish peroxidase) (horseradish peroxidase) | current passing from one electrode to another, versus baseline (inhibition of catalytic activity of acetylcholine esterase) (acetylcholine esterase)
1 | [N-]=[N+]=[N-].[Na+] [azide, sodium azide] | decreased | 
2 | CCOC(=O)CC(SP(=S)(OC)OC)C(=O)OCC (centres unmarked) [malathion] |  | decreased
